Results taken from the NIST ThermoML archive (doi:10.1021/je200213h).
Numbers after ± are expanded uncertainties.

Test: xn = mol fraction of the nth substance listed
Conditions: 101 kPa, Liquid, Capillary tube (Ostwald / Ubbelohde) method

CC(C)(C)Cl [2-chloro-2-methylpropane] + CCCCCC
kinematic viscosity [m2/s]
Conditions	283.15 K	298.15 K	313.15 K
x2 = 0.0495	6.722e-07 ± 5.5e-09	5.527e-07 ± 4.7e-09	4.671e-07 ± 4e-09
x2 = 0.0989	6.489e-07 ± 5.4e-09	5.369e-07 ± 4.6e-09	4.565e-07 ± 4e-09
x2 = 0.2019	6.091e-07 ± 5.1e-09	5.105e-07 ± 4.4e-09	4.391e-07 ± 3.8e-09
x2 = 0.2987	5.81e-07 ± 4.9e-09	4.916e-07 ± 4.2e-09	4.266e-07 ± 3.7e-09
x2 = 0.4043	5.575e-07 ± 4.7e-09	4.756e-07 ± 4.1e-09	4.162e-07 ± 3.7e-09
x2 = 0.4985	5.415e-07 ± 4.6e-09	4.651e-07 ± 4e-09	4.095e-07 ± 3.6e-09
x2 = 0.6024	5.287e-07 ± 4.5e-09	4.571e-07 ± 4e-09	4.048e-07 ± 3.6e-09
x2 = 0.7017	5.203e-07 ± 4.4e-09	4.516e-07 ± 3.9e-09	4.019e-07 ± 3.6e-09
x2 = 0.7996	5.151e-07 ± 4.4e-09	4.489e-07 ± 3.9e-09	4.009e-07 ± 3.6e-09
x2 = 0.9025	5.123e-07 ± 4.4e-09	4.478e-07 ± 3.9e-09	4.016e-07 ± 3.6e-09
x2 = 0.9498	5.119e-07 ± 4.4e-09	4.483e-07 ± 3.9e-09	4.023e-07 ± 3.6e-09

CCC(C)(C)C [2,2-dimethylbutane] + CCC(C)Cl
kinematic viscosity [m2/s]
Conditions	283.15 K	298.15 K	313.15 K
x1 = 0.0448	5.266e-07 ± 4.5e-09	4.621e-07 ± 4e-09	4.07e-07 ± 3.6e-09
x1 = 0.0993	5.3e-07 ± 4.5e-09	4.64e-07 ± 4e-09	4.086e-07 ± 3.6e-09
x1 = 0.2003	5.356e-07 ± 4.5e-09	4.679e-07 ± 4.1e-09	4.12e-07 ± 3.6e-09
x1 = 0.301	5.421e-07 ± 4.6e-09	4.719e-07 ± 4.1e-09	4.157e-07 ± 3.7e-09
x1 = 0.3993	5.494e-07 ± 4.6e-09	4.761e-07 ± 4.1e-09	4.2e-07 ± 3.7e-09
x1 = 0.4989	5.579e-07 ± 4.7e-09	4.815e-07 ± 4.1e-09	4.251e-07 ± 3.7e-09
x1 = 0.6039	5.683e-07 ± 4.8e-09	4.88e-07 ± 4.2e-09	4.309e-07 ± 3.8e-09
x1 = 0.7002	5.793e-07 ± 4.9e-09	4.949e-07 ± 4.2e-09	4.368e-07 ± 3.8e-09
x1 = 0.8033	5.935e-07 ± 5e-09	5.036e-07 ± 4.3e-09	4.438e-07 ± 3.9e-09
x1 = 0.9028	6.07e-07 ± 5.1e-09	5.122e-07 ± 4.4e-09	4.508e-07 ± 3.9e-09
x1 = 0.9518	6.147e-07 ± 5.1e-09	5.165e-07 ± 4.4e-09	4.546e-07 ± 4e-09

CC(C)CCl [1-chloro-2-methylpropane] + CCCCCCC
kinematic viscosity [m2/s]
Conditions	283.15 K	298.15 K	313.15 K
x2 = 0.0507	5.818e-07 ± 4.9e-09	4.95e-07 ± 4.2e-09	4.381e-07 ± 3.8e-09
x2 = 0.0979	5.817e-07 ± 4.9e-09	4.97e-07 ± 4.3e-09	4.396e-07 ± 3.8e-09
x2 = 0.2004	5.851e-07 ± 4.9e-09	5.015e-07 ± 4.3e-09	4.438e-07 ± 3.9e-09
x2 = 0.3008	5.905e-07 ± 4.9e-09	5.064e-07 ± 4.3e-09	4.483e-07 ± 3.9e-09
x2 = 0.3993	5.97e-07 ± 5e-09	5.134e-07 ± 4.4e-09	4.536e-07 ± 3.9e-09
x2 = 0.4999	6.054e-07 ± 5.1e-09	5.215e-07 ± 4.4e-09	4.599e-07 ± 4e-09
x2 = 0.5973	6.156e-07 ± 5.1e-09	5.306e-07 ± 4.5e-09	4.663e-07 ± 4e-09
x2 = 0.6994	6.268e-07 ± 5.2e-09	5.403e-07 ± 4.6e-09	4.733e-07 ± 4.1e-09
x2 = 0.8006	6.397e-07 ± 5.3e-09	5.516e-07 ± 4.7e-09	4.809e-07 ± 4.1e-09
x2 = 0.9002	6.538e-07 ± 5.4e-09	5.633e-07 ± 4.7e-09	4.894e-07 ± 4.2e-09
x2 = 0.9491	6.615e-07 ± 5.5e-09	5.692e-07 ± 4.8e-09	4.94e-07 ± 4.2e-09

CCC(C)Cl (configuration not stated) [2-chlorobutane] + CCC(C)CC
kinematic viscosity [m2/s]
Conditions	283.15 K	298.15 K	313.15 K
x2 = 0.0518	5.193e-07 ± 4.4e-09	4.574e-07 ± 4e-09	4.031e-07 ± 3.6e-09
x2 = 0.101	5.142e-07 ± 4.4e-09	4.542e-07 ± 4e-09	4.004e-07 ± 3.6e-09
x2 = 0.2014	5.066e-07 ± 4.3e-09	4.483e-07 ± 3.9e-09	3.958e-07 ± 3.5e-09
x2 = 0.3025	4.995e-07 ± 4.3e-09	4.431e-07 ± 3.9e-09	3.919e-07 ± 3.5e-09
x2 = 0.4027	4.943e-07 ± 4.2e-09	4.39e-07 ± 3.8e-09	3.885e-07 ± 3.5e-09
x2 = 0.4998	4.906e-07 ± 4.2e-09	4.362e-07 ± 3.8e-09	3.865e-07 ± 3.5e-09
x2 = 0.6043	4.881e-07 ± 4.2e-09	4.345e-07 ± 3.8e-09	3.851e-07 ± 3.4e-09
x2 = 0.7008	4.87e-07 ± 4.2e-09	4.34e-07 ± 3.8e-09	3.844e-07 ± 3.4e-09
x2 = 0.8004	4.874e-07 ± 4.2e-09	4.337e-07 ± 3.8e-09	3.847e-07 ± 3.4e-09
x2 = 0.8981	4.897e-07 ± 4.2e-09	4.344e-07 ± 3.8e-09	3.858e-07 ± 3.5e-09
x2 = 0.9481	4.911e-07 ± 4.2e-09	4.356e-07 ± 3.8e-09	3.868e-07 ± 3.5e-09
